In patent US5994349A, “3-carboalkoxy-2, 3-dihydro-1H-phenothiazin-4[10H]-one derivatives” (priority 1997, dated 1999):
Read-outs that look alike come from different tables or passages of the source.

Tests used:
[1] = tested on: maximal electroshock seizures; test: maximal electroshock (MES) test, Phase I, mice ip; assay type: in vivo, male Carworth Farms No. 1 (CF1) mice; conditions: for responders at 30 mg/kg / responders at 100 mg/kg / responders at 300 mg/kg / responders at 10 mg/kg: Mus musculus
Description: (§1) Initial evaluations for anticonvulsant activity include phases I, VIA and VIB test procedures. These tests are performed intraperitoneally in male Carworth Farms No. 1 (CF1) mice, weighing 18-25 g (Phase I) or orally in male Sprague-Dawley rats, weighing 100-150 g (Phases VIA and VIB). The evaluation is based on three tests: maximal electroshock (MES), subcutaneous (scMet), and the rotorod test for neurological toxicity (Tox). (a) Anticonvulsant Screening Project, Antiepileptic Drug Development Program, National Institutes of Health, DHEW Publ (NIH)(U.S.) 1978, NIH 78-1093. (b) Porter, R. J.; Cereghino, J. J.; Gladding, G. D.; Hessie, B. J.; Kupferberg, H. J.; Scoville, B.; White, B. G. Antiepileptic drug development program. Cleveland Clin. Q. 1984, 51, 293-305. (c) Krall, R. L.; Penry, J. K.; White, B. G.; Kupferberg, H. J.; Swinyard, E. A. Antiepileptic drug development: II. Anticonvulsant drug screening. Epilepsia 1978, 19, 400-428. In the MES test, maximal electroshock seizures are elicited with a 60- cycle alternating current of 50 mA intensity (5-7 times that necessary to elicit minimal electroshock seizures) delivered via corneal electrodes for 0.2 seconds. A drop of 0.9% saline is placed on the eye prior to application of the electrodes in order to […]. Abolition of the hind limb tonic extension component of the seizure is defined as protection and results are expressed as the number of animals protected/the number of animals tested.
In phase I, compounds are suspended in 0.5% aqueous methylcellulose and are administered intraperitoneally at three dosage levels (30, 100, and 300 mg/kg) with anticonvulsant activity and motor impairment noted 30 min and 4 h (and in some cases 2 h and 6 h) after administration.

[2] = tested on: pentylenetetrazol seizures; test: subcutaneous pentylenetetrazol (scMet) test, Phase I, mice ip; assay type: in vivo, male Carworth Farms No. 1 (CF1) mice; conditions: Mus musculus, mice ip
Description: as §1
In the sc MET test, eighty-five mg/kg of pentylenetetrazol, which induces seizures in more than 95% of mice, is administered as a 0.5% solution subcutaneously in the posterior midline. The animal is observed for 30 minutes. Failure to observe even a threshold seizure (a single episode of clonic spasms of at least 5 seconds duration) is defined as protection and the results are expressed as the number of animals protected/ the number of animals tested. […]

neurotoxicity (rotorod) [3] = test: rotorod test for neurological toxicity (Tox), Phase I, mice ip; assay type: in vivo, male Carworth Farms No. 1 (CF1) mice
Description: as §1
The rotorod test is used to evaluate neurotoxicity. The animal is placed on a 1 inch diameter knurled plastic rod rotating at 6 rpm. Normal mice can remain on a rod rotating at this speed indefinitely. […]

neurotoxicity (rotorod) [4] = test: rotorod toxicity, oral rat (Phase VIA/VIB); assay type: in vivo, male Sprague-Dawley rats; conditions: rat oral, 30 mg/kg
Description: as §1
The rotorod test is used to evaluate neurotoxicity. The animal is placed on a 1 inch diameter knurled plastic rod rotating at 6 rpm. Normal mice can remain on a rod rotating at this speed indefinitely.
(§2) To differentiate the results between different rodent species, 4b (X=H), as well as 4a (R=H), 4e (R=Cl), 4f (R=Cl) and 4i (R=CH3) are subsequently evaluated for oral (po) activity in the rat (Phase VIA or VIB).

[5] = tested on: maximal electroshock seizures; test: maximal electroshock (MES) test, oral rat (Phase VIA/VIB); assay type: in vivo, male Sprague-Dawley rats; conditions: 30 mg/kg
Description: as §1, §2

[6] = 100 mg/kg, 4 h, read-out: MES 4 h (converted)
[7] = 4 h, read-out: MES 4 h (converted)
[8] = 0.5 h, 30 min, read-out: MES 30 min (converted)
[9] = 0.5 h, 100 mg/kg, 30 min, read-out: MES 30 min (converted)
[10] = 0.5 h, 30 min, read-out: scMet 30 min
[11] = 0.5 h, 30 min, read-out: scMet 30 min (converted)
[12] = 4 h, read-out: scMet 4 h (converted)

| SMILES | responders at 30 mg/kg ([1]; 4 h, read-out: MES 4 h) [%] | responders at 100 mg/kg [1, 6] [%] | responders at 300 mg/kg [1, 7] [%] | responders at 30 mg/kg [1, 8] [%] | responders at 100 mg/kg [1, 9] [%] | responders at 300 mg/kg [1, 8] [%] | responders at 30 mg/kg [2, 10] [%] | responders at 100 mg/kg [2, 10] [%] | responders at 300 mg/kg [2, 11] [%] | responders at 30 mg/kg ([2]; 4 h, read-out: scMet 4 h) [%] | responders at 100 mg/kg ([2]; 4 h, read-out: scMet 4 h) [%] | responders at 300 mg/kg [2, 12] [%] | Tox 30 min (neurotoxicity (rotorod) [3]; 30 mg/kg) | Tox 4 h (neurotoxicity (rotorod) [3]; 30 mg/kg) | Tox 30 min (neurotoxicity (rotorod) [3]; 100 mg/kg) | Tox 4 h (neurotoxicity (rotorod) [3]; 100 mg/kg) | Tox 30 min (neurotoxicity (rotorod) [3]; 300 mg/kg) | Tox 4 h (neurotoxicity (rotorod) [3]; 300 mg/kg) | Tox (neurotoxicity (rotorod) [4]; 0.25 h) | Tox (neurotoxicity (rotorod) [4]; 0.50 h) | other results |
| --- | --- | --- | --- | --- | --- | --- | --- | --- | --- | --- | --- | --- | --- | --- | --- | --- | --- | --- | --- | --- | --- |
| COC(=O)[C@@H]1C(=O)C2=C(C[C@H]1C)Nc1ccccc1S2 (relative stereo) [Compound 4a, 3-Carbomethoxy-2-methyl-2,3-dihydro-1H-phenothiazin-4[10H] -one] | 0 | 33.3 | 100 | 0 | 100 | 100 | 0 | 0 | 0 | 0 | 0 | 0 | 0/4 | 0/2 | 0/8 | 0/4 | 1/4 | 0/2 | 0/4 | 0/4 | Tox (neurotoxicity (rotorod) [4]; 1.00 h): 0/4; Tox (neurotoxicity (rotorod) [4]; 2.00 h): 0/4; Tox (neurotoxicity (rotorod) [4]; 4.00 h): 0/4; responders at 30 mg/kg ([5]; 0.25 h): 0%; responders at 30 mg/kg ([5]; 1.00 h): 50%; responders at 30 mg/kg ([5]; 2.00 h): 25%; responders at 30 mg/kg ([5]; 4.00 h): 50%; responders at 30 mg/kg ([5]; 0.5 h, 0.50 h): 25% |
| C[C@@H]1CC2=C(Sc3ccccc3N2)C(=O)[C@H]1C(=O)OC(C)(C)C (relative stereo) [Compound 4c, 3-Carbo-ter-butoxy-2-methyl-2,3-dihydro-1H-phenothiazin-4[10H]-one] | 0 | 33.3 | 100 | 0 | 0 | 0 | 0 | 0 | 0 | 0 | 0 | 0 | 0/4 | 0/2 | 0/8 | 0/4 | 0/4 | 0/2 | – | – | MES animals protected at 2 h ([1]; 100 mg/kg, 2 h): 1/3; MES animals protected at 6 h ([1]; 100 mg/kg, 6 h): 0/3; toxic at 2 h (neurotoxicity (rotorod) [3]; 100 mg/kg, 2 h): 1/3; toxic at 6 h (neurotoxicity (rotorod) [3]; 100 mg/kg, 6 h): 0/3 |
| CCOC(=O)[C@@H]1C(=O)C2=C(C[C@H]1C)Nc1ccc(Br)cc1S2 (relative stereo) [Compound 4k, 7-Bromo-3-carbethoxy-2-methyl-2,3-dihydro-1H-phenothiazin-4[10H]-one] | 0 | 0 | 100 | 0 | 0 | 100 | 0 | 0 | 0 | 0 | 0 | 0 | 0/8 | 0/4 | 0/4 | 0/2 | 0/8 | 0/4 | – | – | responders at 10 mg/kg ([1]; 4 h, read-out: MES 4 h): 0%; responders at 10 mg/kg ([1]; 0.5 h, 30 min, read-out: MES 30 min): 0%; responders at 10 mg/kg [2, 10]: 0%; responders at 10 mg/kg ([2]; 4 h, read-out: scMet 4 h): 0%; Tox 30 min (neurotoxicity (rotorod) [3]; 10 mg/kg): 0/4; Tox 4 h (neurotoxicity (rotorod) [3]; 10 mg/kg): 0/2 |
| CCOC(=O)[C@@H]1C(=O)C2=C(C[C@H]1C)Nc1ccc(C)cc1S2 (relative stereo) [Compound 4i, 3-Carbethoxy-2,7-dimethyl-2,3-dihydro-1H-phenothiazin-4[10H]-one] | 0 | 0 | 100 | 50 | 33.3 | 100 | 0 | 0 | 0 | 0 | 0 | 0 | 0/4 | 0/2 | 0/8 | 0/4 | 0/4 | 0/2 | 0/4 | 0/4 | Tox (neurotoxicity (rotorod) [4]; 1.00 h): 0/4; Tox (neurotoxicity (rotorod) [4]; 2.00 h): 0/4; Tox (neurotoxicity (rotorod) [4]; 4.00 h): 0/4; responders at 30 mg/kg ([5]; 0.25 h): 0%; responders at 30 mg/kg ([5]; 1.00 h): 75%; responders at 30 mg/kg ([5]; 2.00 h): 25%; responders at 30 mg/kg ([5]; 4.00 h): 0%; responders at 30 mg/kg ([5]; 0.5 h, 0.50 h): 50% |
| COC(=O)[C@@H]1C(=O)C2=C(C[C@H]1C)Nc1ccc(C)cc1S2 (relative stereo) [Compound 4h] | 0 | 33.3 | 100 | 0 | 0 | 100 | 0 | 0 | 0 | 0 | 0 | – | 0/4 | 0/2 | 0/8 | 0/4 | 0/3 | 0/1 | – | – | MES animals protected at 0.25 h ([1]; 100 mg/kg, 0.25 h): 2/3 |
| C[C@@H]1CC2=C(Sc3cc(Cl)ccc3N2)C(=O)[C@H]1C(=O)OC(C)(C)C (relative stereo) [Compound 4g, 7-Chloro-3-carbo-ter-butoxy-2-methyl-2,3-dihydro-1H-phenothiazin-4[10H]-one] | 0 | 33.3 | 100 | 0 | 0 | 0 | 0 | 0 | 0 | 0 | 0 | 0 | 0/4 | 0/2 | 0/8 | 0/4 | 0/4 | 0/2 | – | – | – |
